From BindingDB's records for patent US20260060961 (Jazz Pharmaceuticals Ireland, 2026)

Molecular target: GTPase KRas [G12C] (Homo sapiens, UniProt P01116, G12C)
Assay: HTRF Nucleotide Exchange Assay
Protocol: The capacity of compounds to bind KRAS G12C and KRAS wildtype was quantified using a HTRF nucleotide exchange assay. Recombinant human KRAS protein (5 nM; aa1-188 KRAS WT or KRAS containing the G12C amino acid substitution, an N-terminal 6×His-tag and leader sequence), and 2 nM Europium-labeled anti-6×His antibody were mixed in assay buffer (10 mM HEPES pH7.3, 75 mM NaCl, 5 mM MgCl2, 0.05% BSA, 0.0025% NP-40 and 100 mM KF) with various concentrations of compound in a 384-well plate and a volume of 5 μL. After a 180 minute incubation at room temperature, 5 μl of 200 nM EDA-GTP-DY647P1 diluted in assay buffer was added to the plate. Following 30-minute incubation at room temperature, time-resolved fluorescence was measured on a PerkinElmer Envision plate reader. DMSO (0.3%) and unlabeled GDP (1 μM) or equivalent tool compound were used to generate the Max and Min assay signals, respectively. Data was analysed using a four-parameter logistic model to calculate IC50 values, with at least two independent replicates were performed for each compound.

Chain of GTPase KRas [G12C] (P01116 whole entry G12C): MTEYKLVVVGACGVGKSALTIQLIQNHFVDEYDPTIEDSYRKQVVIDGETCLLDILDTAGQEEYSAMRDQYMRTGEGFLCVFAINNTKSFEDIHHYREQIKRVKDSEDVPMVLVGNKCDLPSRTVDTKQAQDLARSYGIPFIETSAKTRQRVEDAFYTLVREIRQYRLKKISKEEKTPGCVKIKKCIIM

Structure (SMILES)	IC50 [µM]
C=CC(=O)N1CC2(CC(c3nc(-c4ccc5c(cnn5C)c4)c(-c4cccc5ccccc45)n3C)C2)C1 [US20260060961, Example 34]	> 10
C=CC(=O)N1CC2(CC(c3nc(-c4ccc(OCC(=O)N5CCOCC5)cc4)c(-c4cc(O)cc5ccccc45)n3C)C2)C1 [US20260060961, Example 29]	< 1
